Patent US11351151B2, “Compound having anticancer activity and preparation method and application” (3D Medicines (Beijing) Co., Ltd., priority 2016, dated 2022)

Columns and labels:
Assay in all cases: Cell proliferation assay (Alamar Blue)
Format in all cases: cell-based
AN3CA = details: Homo sapiens, AN3-CA, 144 h; AN3CA (endometrial cells); 6 days
Experimental: (§1) 1. Instruments and Materials • Thermo 311 CO2 incubator; Haier biosafety cabinet; Molecular Devices microplate reader; Xiangyi brand L530 desktop low speed centrifuge; Olympus IX51 inverted fluorescence microscope, DMEM, RPMI 1640, MEM, DMEM/F12 1:1 medium, Fetal bovine serum, 0.25% trypsin solution, phosphate buffer (Thermo Fisher Shanghai Co., Ltd.); sigma dimethyl sulfoxide (DMSO), resazurin; 54 commercial tumor cell lines (including 26 liver cancer cell lines). Experimental drugs: compounds 1-12 and active drug Linifanib; chemotherapeutic drug Doxorubicin (HY-15142; Shanghai Qianyuan Biomedical Technology Co., Ltd.).
(§2) 2. Experimental Methods • 2.1 Cultivation of different cell lines • 54 cell lines were cultured in a culture medium containing fetal bovine serum and placed in a 5% CO 2 incubator at 37° C. for incubation. The cells were all grown in an adherent state, and the growth was observed under an inverted microscope, and subculture was performed when the cell confluence rate reached 80%-90%. The proportion and quantity of passage were determined by experimental needs. The ratio of subculture of this cell line was generally 1:2^˜1:3. • 2.2 inhibition effect on the proliferation of different tumor cell lines • Cell test: 54 cell lines in logarithmic growth phase were inoculated in 96-well culture plates at 500^˜1×10^4/well (the optimal seeding density of each cell line was determined in pre-experiment), After incubating at 37° C. for 4 h in a 5% CO2 humidification incubator, added 10 μL of compounds 1-12 or Linifanib to each well, and tested 9 drug concentration gradients for each compound (diluted from the highest concentration of the test by 3.16 times). The solubility of each compound was different at a starting concentration of 30 or 100 μM, respectively. The QC reference compound Doxorubicin was added simultaneously to each cell line test, and the final drug concentrations were 10, 3.16, 1, 0.31, 0.1, 0.03, 0.01, 0.003, and 0.001 μM, respectively. In addition, a positive control group (100% inhibition) and a negative control group (0% inhibition) were set at the same time. The drug group was repeated for 2 wells per concentration, and the positive control group and the negative control group were repeated for 6 wells. After the culture was continued for 6 days in the incubator, AlamarBlue test operation was followed; • AlamarBlue test procedure: Incubated with 10 μL of AlamarBlue reagent per well for 1-4 h, shook for 1-2 min, MD microplate reader EX: 560 nm, EM: 590 nm wavelength to measure fluorescence, recorded the results, calculated the cell inhibition rate of the compound of the invention. Cell inhibition rate (%)=(A0% inhibition−A administration)/(A0% inhibition−A100% inhibition)×100%, and then using the method of nonlinear regression using Graph Pad Prism 5.0 or MATILAB software (usually using four parameters) to graph and obtain a drug dose response curve to obtain an IC50 value of the compound of the present invention acting on a cancer cell line.

Alexander cells = details: 144 h, liver cancer cell line, 6 days
Experimental: as §1, §2

NCl-H1703 = details: 144 h; NCl-H1703 (lung cancer cells); 6 days
Experimental: as §1, §2

SNU387 = details: Homo sapiens, SNU-387, 144 h; SNU387 liver cancer cell line; 6 days
Experimental: as §1, §2

HCCLM3 = details: Homo sapiens, 144 h; HCCLM3 tumor cell line; 6 days
Experimental: as §1, §2

TE-15 = details: Homo sapiens, 144 h; TE-15 tumor cell line; 6 days
Experimental: as §1, §2

SNU423 = details: Homo sapiens, SNU-423, 144 h; SNU423 liver cancer cell line; 6 days
Experimental: as §1, §2

SNU182 = details: Homo sapiens, SNU-182, 144 h; SNU182 liver cancer cell line; 6 days
Experimental: as §1, §2

KASUMI-1 = details: Homo sapiens, 144 h; KASUMI-1 (leukemia cells); 6 days
Experimental: as §1, §2

MG63 = details: Homo sapiens, MG-63, 144 h; MG63 tumor cell line; 6 days
Experimental: as §1, §2

JHH6 = details: 144 h; JHH6 liver cancer cell line; 6 days
Experimental: as §1, §2

MFM-223 = details: Homo sapiens, 144 h; MFM-223 tumor cell line; 6 days
Experimental: as §1, §2

HT55 = details: Homo sapiens, 144 h; HT55 tumor cell line; 6 days
Experimental: as §1, §2

KM12 = details: Homo sapiens, 144 h; KM12 tumor cell line; 6 days
Experimental: as §1, §2

K562 = details: Homo sapiens, 144 h; K562 tumor cell line; 6 days
Experimental: as §1, §2

Li-7 = details: 144 h; Li-7 liver cancer cell line; 6 days
Experimental: as §1, §2

HUH7 = details: Homo sapiens, Huh-7, 144 h; HUH7 liver cancer cell line; 6 days
Experimental: as §1, §2

JHH1 = details: 144 h; JHH1 liver cancer cell line; 6 days
Experimental: as §1, §2

SW620 = details: Homo sapiens, SW-620, 144 h; SW620 tumor cell line; 6 days
Experimental: as §1, §2

SNU761 = details: 144 h; SNU761 liver cancer cell line; 6 days
Experimental: as §1, §2

HuTu80 = details: Homo sapiens, 144 h; HuTu80 tumor cell line; 6 days
Experimental: as §1, §2

SNU739 = details: SNU-739, 144 h; SNU739 liver cancer cell line; 6 days
Experimental: as §1, §2

NCl-H1648 = details: 144 h; NCl-H1648 tumor cell line; 6 days
Experimental: as §1, §2

DLD1 = details: Homo sapiens, DLD-1, 144 h; DLD1 tumor cell line; 6 days
Experimental: as §1, §2

Compound | IC50 (AN3CA) | IC50 (Alexander cells) | IC50 (NCl-H1703) | IC50 (SNU387) | IC50 (HCCLM3) | IC50 (TE-15) | IC50 (SNU423) | IC50 (SNU182) | IC50 (KASUMI-1) | IC50 (MG63) | IC50 (JHH6) | IC50 (MFM-223) | IC50 (HT55) | IC50 (KM12) | IC50 (K562) | IC50 (Li-7) | IC50 (HUH7) | IC50 (JHH1) | IC50 (SW620) | IC50 (SNU761) | also measured
Cc1ccc(F)c(NC(=O)Nc2ccc(-c3cccc4c3c(N)nn4C(=O)C[C@H](N)C(=O)N[C@@H](CCC(=O)O)C(=O)O)cc2)c1 [Compound 1] | 0.31 µM | 5.5 µM | 0.04 µM | 12.8 µM | 11.4 µM | 7.59 µM | 9.03 µM | 19.9 µM | 0.051 µM | 7.69 µM | 3 µM | 8.89 µM | 16.8 µM | 1.89 µM | 3.99 µM | 5.35 µM | 3.22 µM | 8.15 µM | 2.79 µM | 9.53 µM | IC50 (HuTu80): 3.17 µM; IC50 (SNU739): 4.56 µM; IC50 (NCl-H1648): 6.89 µM; IC50 (DLD1): 9.86 µM
Cc1ccc(F)c(NC(=O)Nc2ccc(-c3cccc4c3c(N)nn4C(=O)C[C@H](N)C(=O)N[C@@H](CCC(=O)N[C@@H](CCC(=O)N[C@@H](CCC(=O)N[C@@H](CCC(=O)O)C(=O)O)C(=O)O)C(=O)O)C(=O)O)cc2)c1 [Compound 2] | 0.45 µM | 5.21 µM | 0.063 µM | 19.4 µM | 15.8 µM | 8.45 µM | 14.4 µM | 32.1 µM | 0.12 µM | 15.8 µM | 4.38 µM | 10.3 µM | 20.4 µM | 2.94 µM | 7.13 µM | 7.26 µM | 4.32 µM | 11.3 µM | 4.67 µM | 15.3 µM | IC50 (HuTu80): 5.62 µM; IC50 (SNU739): 6.33 µM; IC50 (NCl-H1648): 8.91 µM; IC50 (DLD1): 14 µM
Cc1ccc(F)c(NC(=O)Nc2ccc(-c3cccc4c3c(N)nn4C(=O)C[C@H](N)C(=O)N[C@@H](CCC(=O)N[C@@H](CCC(=O)N[C@@H](CCC(=O)N[C@@H](CCC(=O)N[C@@H](CCC(=O)N[C@@H](CCC(=O)N[C@@H](CCC(=O)N[C@@H](CCC(=O)N[C@@H](CCC(=O)O)C(=O)O)C(=O)O)C(=O)O)C(=O)O)C(=O)O)C(=O)O)C(=O)O)C(=O)O)C(=O)O)cc2)c1 [Compound 3] | 0.64 µM | 12.7 µM | 0.15 µM | 40.1 µM | 25.7 µM | 12.7 µM | 26.1 µM | 54.2 µM | 0.19 µM | 27.1 µM | 7.51 µM | 21.9 µM | 31.3 µM | 4.63 µM | 16.9 µM | 10.1 µM | 6.69 µM | 14.9 µM | 10.4 µM | 29.1 µM | IC50 (HuTu80): 7.33 µM; IC50 (SNU739): 8.05 µM; IC50 (NCl-H1648): 13.6 µM; IC50 (DLD1): 20.3 µM
Cc1ccc(F)c(NC(=O)Nc2ccc(-c3cccc4c3c(N)nn4C(=O)CCCCCNC(=O)C[C@H](N)C(=O)N[C@@H](CCC(=O)O)C(=O)O)cc2)c1 [Compound 4] | 28.7 µM | 97.2 µM | 1.59 µM | > 100 µM | 82 µM | > 100 µM | > 100 µM | > 100 µM | 1.71 µM | 94.5 µM | 67.7 µM | 38 µM | > 100 µM | 33.9 µM | 44.2 µM | 47.2 µM | 60 µM | > 100 µM | 71.4 µM | 85 µM | IC50 (HuTu80): 38.2 µM; IC50 (SNU739): 73.8 µM; IC50 (NCl-H1648): > 100 µM; IC50 (DLD1): > 100 µM
Cc1ccc(F)c(NC(=O)Nc2ccc(-c3cccc4c3c(N)nn4C(=O)CCCCCNC(=O)C[C@H](N)C(=O)N[C@@H](CCC(=O)N[C@@H](CCC(=O)N[C@@H](CCC(=O)N[C@@H](CCC(=O)O)C(=O)O)C(=O)O)C(=O)O)C(=O)O)cc2)c1 [Compound 5] | 45.6 µM | > 100 µM | 3.43 µM | > 100 µM | > 100 µM | > 100 µM | > 100 µM | > 100 µM | 3.21 µM | > 100 µM | 79.3 µM | 48.3 µM | > 100 µM | 45.7 µM | 56.1 µM | 59.1 µM | 77.9 µM | > 100 µM | > 100 µM | > 100 µM | IC50 (HuTu80): 48.4 µM; IC50 (SNU739): > 100 µM; IC50 (NCl-H1648): > 100 µM; IC50 (DLD1): > 100 µM
Cc1ccc(F)c(NC(=O)Nc2ccc(-c3cccc4c3c(N)nn4C(=O)CCCCCNC(=O)C[C@H](N)C(=O)N[C@@H](CCC(=O)N[C@@H](CCC(=O)N[C@@H](CCC(=O)N[C@@H](CCC(=O)N[C@@H](CCC(=O)N[C@@H](CCC(=O)N[C@@H](CCC(=O)N[C@@H](CCC(=O)N[C@@H](CCC(=O)O)C(=O)O)C(=O)O)C(=O)O)C(=O)O)C(=O)O)C(=O)O)C(=O)O)C(=O)O)C(=O)O)cc2)c1 [Compound 6] | 55.4 µM | > 100 µM | 7.16 µM | > 100 µM | > 100 µM | > 100 µM | > 100 µM | > 100 µM | 4.94 µM | > 100 µM | > 100 µM | 72.2 µM | > 100 µM | 70 µM | 74.3 µM | 82 µM | 92.1 µM | > 100 µM | > 100 µM | > 100 µM | IC50 (HuTu80): 61 µM; IC50 (SNU739): > 100 µM; IC50 (NCl-H1648): > 100 µM; IC50 (DLD1): > 100 µM
